Test results taken from patent US7655392B2, “Quenching methods for red blood cell inactivation process” (priority 2004, dated 2010).
Where two headings read alike, the source gives them in different places.

Legend:
[1] = system: red blood cells
Description: Methods for determining ATP, 2,3-DPG, glucose, hemoglobin, hemolysis, and potassium are available in the art. See for example, Davey et al., Transfusion, 32:525-528 (1992), the disclosure of which is incorporated herein. Methods for determining red blood cell function are also described in Greenwalt et al., Vox Sang, 58:94-99 (1990); Hogman et al., Vox Sang, 65:271-278 (1993); and Beutler et al., Blood, Vol. 59 (1982) the disclosures of which are incorporated herein by reference. For example, intracellular ATP and intracellular 2,3-DPG are measured using a Sigma ATP kit or 2,3-DPG kit (Sigma, St. Louis, Mo.). The ATP kit is used following Sigma procedure No. 366-UV, the disclosure of which is hereby incorporated by reference. […] The extracellular pH is measured by centrifuging the cells at 4° C. for 15 minutes at 12,000×g and removing the supernatant, for which the pH is measured using a standard pH meter at room temperature (e.g. Beckman, Epoxy Calomel electrode). For the intracellular pH, the remaining pellet is capped in the centrifuge tube and stored at about −80° C. for at least 2 hours. This is then lysed by the addition of deionized water. […] Measurements can be made shortly after treatment and as a function of post treatment storage, for example storage for up to 42 days.
Full units of red cell concentrates (Interstate Blood Bank, Inc., Memphis, Tenn.) were leukoreduced. A volume of 200 mL of this RCC (80% hematocrit) was mixed with 94 mL of Erythrosol or 100 mL of Adsol (Baxter Healthcare Corp., Deerfield, Ill.) as control (unit 1). A volume of 20 mL 8% dextrose was used to dissolve PIC-1 (mg) and acid glutathione (mg) and added to one unit to provide 0.2 mM PIC-1 and 2 mM glutathione (unit 2). […] For the glutathione, 1.2 mL of 10 N NaOH was added (2 equivalents). The PIC-1 was mixed with the unit, followed 1 minute later (unit 3) or 5 minutes later (unit 4) by glutathione. For unit 5, neutralized glutathione was mixed first, followed 10 minutes later by the PIC-1. […] All units were mixed by grasping the ends of the blood bag and mixing in a FIG. 8 motion 30 times. These were then incubated at room temperature for 20 hours total. A compound adsorption device (CAD), comprising a polymeric resin contained within a mesh pouch, was used for all but the control sample. This device is intended to remove residual PIC-1, PIC-1 breakdown products, and glutathione from the samples. Samples were incubated for 8 hours, then transferred to a second blood bag containing the CAD and incubated for an additional 12 hours. Following the room temperature incubation, samples were transferred to a refrigerator (4° C.) and stored up to 43 days. Aliquots were removed from each unit 12 hours and 20 hours post mixing, and every week thereafter. Aliquots were analyzed for total hemoglobin, pH, intracellular ATP, plasma hemoglobin, potassium, extracellular glucose and extracellular lactate.

[2] = system: Vesicular Stomatitis Virus (VSV); type: cell-based
[3] = system: Serratia marcescens; type: cell-based
[4] = 0.2 mM PIC-1+2 mM glutathione, 0.9 eq base, formulated together
[5] = 0.2 mM PIC-1+20 mM glutathione, 0 eq base, formulated together
[6] = 0.2 mM PIC-1+20 mM glutathione, 0.9 eq base, formulated together (PIC-1 precipitated)
[7] = 0.2 mM PIC-1+20 mM glutathione, 1.5 eq base, formulated together (PIC-1 precipitated)
[8] = 0.2 mM PIC-1+20 mM glutathione, 2 eq base, formulated together (PIC-1 precipitated)

O=C(CCNc1c2ccccc2nc2ccccc12)OCCN(CCCl)CCCl [PIC-1]
Percent Hemolysis ([1]; 16B day 0, sample 2: standard 0.2 mM PIC-1+2 mM GSH): 0.22%
Percent Hemolysis ([1]; 16B day 0, sample 3: 0.2 mM PIC-1, 1' delay, 20 mM GSH+2 eq base): 0.19%
Percent Hemolysis ([1]; 16B day 0, sample 4: 0.2 mM PIC-1, 5' delay, 20 mM GSH+2 eq base): 0.19%
Percent Hemolysis ([1]; 16B day 0, sample 5: 20 mM GSH+2 eq base, 10' delay, 0.2 mM PIC-1): 0.19%
Percent Hemolysis ([1]; 16B day 0.5, sample 2: standard 0.2 mM PIC-1+2 mM GSH): 0.24%
Percent Hemolysis ([1]; 16B day 0.5, sample 3: 0.2 mM PIC-1, 1' delay, 20 mM GSH+2 eq base): 0.16%
Percent Hemolysis ([1]; 16B day 0.5, sample 4: 0.2 mM PIC-1, 5' delay, 20 mM GSH+2 eq base): 0.25%
Percent Hemolysis ([1]; 16B day 0.5, sample 5: 20 mM GSH+2 eq base, 10' delay, 0.2 mM PIC-1): 0.24%
Percent Hemolysis ([1]; 16B day 0.8, sample 2: standard 0.2 mM PIC-1+2 mM GSH): 0.46%
Percent Hemolysis ([1]; 16B day 0.8, sample 3: 0.2 mM PIC-1, 1' delay, 20 mM GSH+2 eq base): 0.40%
Percent Hemolysis ([1]; 16B day 0.8, sample 4: 0.2 mM PIC-1, 5' delay, 20 mM GSH+2 eq base): 0.48%
Percent Hemolysis ([1]; 16B day 0.8, sample 5: 20 mM GSH+2 eq base, 10' delay, 0.2 mM PIC-1): 0.47%
Percent Hemolysis ([1]; 16B day 7, sample 2: standard 0.2 mM PIC-1+2 mM GSH): 0.62%
Percent Hemolysis ([1]; 16B day 7, sample 3: 0.2 mM PIC-1, 1' delay, 20 mM GSH+2 eq base): 0.35%
Percent Hemolysis ([1]; 16B day 7, sample 4: 0.2 mM PIC-1, 5' delay, 20 mM GSH+2 eq base): 0.52%
Percent Hemolysis ([1]; 16B day 7, sample 5: 20 mM GSH+2 eq base, 10' delay, 0.2 mM PIC-1): 0.57%
Percent Hemolysis ([1]; 16B day 14, sample 2: standard 0.2 mM PIC-1+2 mM GSH): 0.69%
Percent Hemolysis ([1]; 16B day 14, sample 3: 0.2 mM PIC-1, 1' delay, 20 mM GSH+2 eq base): 0.50%
Percent Hemolysis ([1]; 16B day 14, sample 4: 0.2 mM PIC-1, 5' delay, 20 mM GSH+2 eq base): 0.52%
Percent Hemolysis ([1]; 16B day 14, sample 5: 20 mM GSH+2 eq base, 10' delay, 0.2 mM PIC-1): 0.55%
Percent Hemolysis ([1]; 16B day 22, sample 2: standard 0.2 mM PIC-1+2 mM GSH): 0.87%
Percent Hemolysis ([1]; 16B day 22, sample 3: 0.2 mM PIC-1, 1' delay, 20 mM GSH+2 eq base): 0.59%
Percent Hemolysis ([1]; 16B day 22, sample 4: 0.2 mM PIC-1, 5' delay, 20 mM GSH+2 eq base): 0.62%
Percent Hemolysis ([1]; 16B day 22, sample 5: 20 mM GSH+2 eq base, 10' delay, 0.2 mM PIC-1): 0.63%
Percent Hemolysis ([1]; 16B day 28, sample 2: standard 0.2 mM PIC-1+2 mM GSH): 0.86%
Percent Hemolysis ([1]; 16B day 28, sample 3: 0.2 mM PIC-1, 1' delay, 20 mM GSH+2 eq base): 0.63%
Percent Hemolysis ([1]; 16B day 28, sample 4: 0.2 mM PIC-1, 5' delay, 20 mM GSH+2 eq base): 0.64%
Percent Hemolysis ([1]; 16B day 28, sample 5: 20 mM GSH+2 eq base, 10' delay, 0.2 mM PIC-1): 0.65%
Percent Hemolysis ([1]; 16B day 35, sample 2: standard 0.2 mM PIC-1+2 mM GSH): 0.99%
Percent Hemolysis ([1]; 16B day 35, sample 3: 0.2 mM PIC-1, 1' delay, 20 mM GSH+2 eq base): 0.74%
Percent Hemolysis ([1]; 16B day 35, sample 4: 0.2 mM PIC-1, 5' delay, 20 mM GSH+2 eq base): 0.76%
Percent Hemolysis ([1]; 16B day 35, sample 5: 20 mM GSH+2 eq base, 10' delay, 0.2 mM PIC-1): 0.71%
Percent Hemolysis ([1]; 16B day 43, sample 2: standard 0.2 mM PIC-1+2 mM GSH): 1.17%
Percent Hemolysis ([1]; 16B day 43, sample 3: 0.2 mM PIC-1, 1' delay, 20 mM GSH+2 eq base): 0.82%
Percent Hemolysis ([1]; 16B day 43, sample 4: 0.2 mM PIC-1, 5' delay, 20 mM GSH+2 eq base): 0.90%
Percent Hemolysis ([1]; 16B day 43, sample 5: 20 mM GSH+2 eq base, 10' delay, 0.2 mM PIC-1): 0.83%
inactivation of a high titer of VSV [2]: essentially complete inactivation
Log S. marcescens reduction [3, 4]: 4.27 Log
Log S. marcescens titer [3, 4]: 2.8 Log
Log S. marcescens reduction [3, 5]: 2.40 Log
Log S. marcescens titer [3, 5]: 4.6 Log
Log S. marcescens reduction [3, 6]: 2.26 Log
Log S. marcescens titer [3, 6]: 4.8 Log
Log S. marcescens reduction [3, 7]: 1.66 Log
Log S. marcescens titer [3, 7]: 5.4 Log
Log S. marcescens reduction [3, 8]: 0.76 Log
Log S. marcescens titer [3, 8]: 6.3 Log
Log S. marcescens reduction ([3]; 0.2 mM PIC-1 first, 20 mM glutathione+2 eq base shortly after (sequential)): 3.02 Log
